Laboratory results: patent US8247211B2, “Glycopeptide antibiotics” (American Cyanamid Company, priority 2001, dated 2012)
Converted amounts (≈) assume the structure as drawn.

Legend:
Experiment in all cases: In vitro antibacterial evaluation: minimum inhibitory concentration (MIC), broth dilution method
Type in all cases: cell-based
Enterococcus sp. = test system: Enterococcus sp.
Method in brief: (§1)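 An MIC is reported for each organism as the least concentration giving inhibition, using broth dilution over 64-0.06 μg/mL with a 5×10^5 CFU/mL inoculum.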

Escherichia coli = test system: Escherichia coli
Method in brief: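 Following NCCLS approved standard M7-A2, compounds are serially diluted from 64 to 0.06 μg/mL in Muller-Hinton II […] and inoculated at 5×10^5 CFU/mL; the MIC is the minimum concentration at which growth is inhibited.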

Streptococcus sp. = test system: Streptococcus sp.
Method in brief: as §1

Staphylococcus sp. = details: broth dilution, 18 hours at 35° C.
Method in brief: as §1

[1] = broth dilution, inoculum 5×10^5 CFU/mL, 18 hours at 35° C.

## CC(c1ccccc1)C1NC(=O)CNC(=O)C(CO)NC(=O)C(C(O)C2CNC(=N)N2C2OC(CO)C(O)C(O)C2O)NC(=O)C(C(O)C2CNC(=N)N2)NC(=O)C(Cc2ccc(OC3OC(CO)C(OC4OC5COC(c6ccc(-c7ccsc7)cc6)OC5C(O)C4O)C(O)C3O)cc2)NC1=O (stereo not drawn) [Example 164, Cyclo[glycyl-β-methylphenylalanyl-O-[4-O-[4,6-O-[4-(3-thienyl)benzylidene]hexopyranosyl]-hexopyranosyl]tyrosyl-3-(2-iminoimidazolidin-4-yl)seryl-3-(3-hexopyranosyl-2-iminoimidazolidin-4-yl)serylseryl]]
Enterococcus sp.; [1]
  MIC Enterococcus avium (GC 4558): 8 µg/mL (≈ 5.46 µM)
  MIC Enterococcus faecalis (ATCC 29212): 8 µg/mL (≈ 5.46 µM)
  MIC Enterococcus faecalis (GC 2242): 4 µg/mL (≈ 2.73 µM)
  MIC Enterococcus faecalis (GC 2691): 8 µg/mL (≈ 5.46 µM)
  MIC Enterococcus faecalis (GC 3059): 8 µg/mL (≈ 5.46 µM)
  MIC Enterococcus faecalis (GC 4552): 8 µg/mL (≈ 5.46 µM)
  MIC Enterococcus faecalis (GC 4553): 8 µg/mL (≈ 5.46 µM)
  MIC Enterococcus faecalis (GC 4554): 16 µg/mL (≈ 10.9 µM)
  MIC Enterococcus faecalis (GC 6189): 4 µg/mL (≈ 2.73 µM)
  MIC Enterococcus faecium (GC 2243): 8 µg/mL (≈ 5.46 µM)
  MIC Enterococcus faecium (GC 4556): 8 µg/mL (≈ 5.46 µM)
  MIC Enterococcus faecium (GC 4557): 4 µg/mL (≈ 2.73 µM)
Enterococcus sp.; strain ATCC 29212
  MIC Enterococcus faecalis (ATCC 29212): 8 µg/mL (≈ 5.46 µM)
Enterococcus sp.; strain GC 2242
  MIC Enterococcus faecalis (GC 2242): 4 µg/mL (≈ 2.73 µM)
Enterococcus sp.; strain GC 2243
  MIC Enterococcus faecium (GC 2243): 8 µg/mL (≈ 5.46 µM)
Enterococcus sp.; strain GC 2691
  MIC Enterococcus faecalis (GC 2691): 8 µg/mL (≈ 5.46 µM)
Enterococcus sp.; strain GC 3059
  MIC Enterococcus faecalis (GC 3059): 8 µg/mL (≈ 5.46 µM)
Enterococcus sp.; strain GC 4552
  MIC Enterococcus faecalis (GC 4552): 8 µg/mL (≈ 5.46 µM)
Enterococcus sp.; strain GC 4553
  MIC Enterococcus faecalis (GC 4553): 8 µg/mL (≈ 5.46 µM)
Enterococcus sp.; strain GC 4554
  MIC Enterococcus faecalis (GC 4554): 16 µg/mL (≈ 10.9 µM)
Enterococcus sp.; strain GC 4556
  MIC Enterococcus faecium (GC 4556): 8 µg/mL (≈ 5.46 µM)
Enterococcus sp.; strain GC 4557
  MIC Enterococcus faecium (GC 4557): 4 µg/mL (≈ 2.73 µM)
Enterococcus sp.; strain GC 4558
  MIC Enterococcus avium (GC 4558): 8 µg/mL (≈ 5.46 µM)
Enterococcus sp.; strain GC 6189
  MIC Enterococcus faecalis (GC 6189): 4 µg/mL (≈ 2.73 µM)
Escherichia coli; strain ATCC 25922
  MIC Escherichia coli (ATCC 25922): >64 µg/mL
Escherichia coli; strain GC 4559
  MIC Escherichia coli (GC 4559): 64 µg/mL (≈ 43.7 µM)
Escherichia coli; strain GC 4560
  MIC Escherichi coli (GC 4560): 4 µg/mL (≈ 2.73 µM)
Streptococcus sp.; [1]
  MIC Streptococcus agalactiae (GC 4564): 0.12 µg/mL (≈ 0.0819 µM)
  MIC Streptococcus pneumoniae (ATCC 6301): <0.06 µg/mL
  MIC Streptococcus pneumoniae (GC 1894): <0.06 µg/mL
  MIC Streptococcus pneumoniae (GC 4565): <0.06 µg/mL
  MIC Streptococcus pyogenes (GC 4563): 0.12 µg/mL (≈ 0.0819 µM)
Streptococcus sp.; strain ATCC 6301
  MIC Streptococcus pneumoniae (ATCC 6301): <0.06 µg/mL
Streptococcus sp.; strain GC 1894
  MIC Streptococcus pneumoniae (GC 1894): <0.06 µg/mL
Streptococcus sp.; strain GC 4563
  MIC Streptococcus pyogenes (GC 4563): 0.12 µg/mL (≈ 0.0819 µM)
Streptococcus sp.; strain GC 4564
  MIC Streptococcus agalactiae (GC 4564): 0.12 µg/mL (≈ 0.0819 µM)
Streptococcus sp.; strain GC 4565
  MIC Streptococcus pneumoniae (GC 4565): <0.06 µg/mL
Staphylococcus sp.; 5×10^5 CFU/mL
  MIC Coagulase Negative Staphylococcus (GC 4547): 4 µg/mL (≈ 2.73 µM)
  MIC Coagulase Negative Staphylococcus (GC 4548): 1 µg/mL (≈ 0.682 µM)
  MIC Coagulase Negative Staphylococcus (GC 4549): 0.5 µg/mL (≈ 0.341 µM)
  MIC Coagulase Negative Staphylococcus (GC 4551): 4 µg/mL (≈ 2.73 µM)
  MIC Coagulase Negative Staphylococcus (GC 6257): 1 µg/mL (≈ 0.682 µM)
  MIC Staphylococcus aureus (ATCC 29213): 8 µg/mL (≈ 5.46 µM)
  MIC Staphylococcus aureus (GC 1131): 4 µg/mL (≈ 2.73 µM)
  MIC Staphylococcus aureus (GC 3051): 16 µg/mL (≈ 10.9 µM)
  MIC Staphylococcus aureus (GC 3053): 8 µg/mL (≈ 5.46 µM)
  MIC Staphylococcus aureus (GC 4541): 8 µg/mL (≈ 5.46 µM)
  MIC Staphylococcus aureus (GC 4542): 16 µg/mL (≈ 10.9 µM)
  MIC Staphylococcus aureus (GC 4544): 8 µg/mL (≈ 5.46 µM)
  MIC Staphylococcus aureus (GC 4545): 4 µg/mL (≈ 2.73 µM)
  MIC Staphylococcus aureus-SMITH (GC 4543): 4 µg/mL (≈ 2.73 µM)
  MIC Staphylococcus haemolyticus (GC 4546): 4 µg/mL (≈ 2.73 µM)
Staphylococcus sp.; strain ATCC 29213
  MIC Staphylococcus aureus (ATCC 29213): 8 µg/mL (≈ 5.46 µM)
Staphylococcus sp.; strain GC 1131
  MIC Staphylococcus aureus (GC 1131): 4 µg/mL (≈ 2.73 µM)
Staphylococcus sp.; strain GC 3051
  MIC Staphylococcus aureus (GC 3051): 16 µg/mL (≈ 10.9 µM)
Staphylococcus sp.; strain GC 3053
  MIC Staphylococcus aureus (GC 3053): 8 µg/mL (≈ 5.46 µM)
Staphylococcus sp.; strain GC 4541
  MIC Staphylococcus aureus (GC 4541): 8 µg/mL (≈ 5.46 µM)
Staphylococcus sp.; strain GC 4542
  MIC Staphylococcus aureus (GC 4542): 16 µg/mL (≈ 10.9 µM)
Staphylococcus sp.; strain GC 4543
  MIC Staphylococcus aureus-SMITH (GC 4543): 4 µg/mL (≈ 2.73 µM)
Staphylococcus sp.; strain GC 4544
  MIC Staphylococcus aureus (GC 4544): 8 µg/mL (≈ 5.46 µM)
Staphylococcus sp.; strain GC 4545
  MIC Staphylococcus aureus (GC 4545): 4 µg/mL (≈ 2.73 µM)
Staphylococcus sp.; strain GC 4546
  MIC Staphylococcus haemolyticus (GC 4546): 4 µg/mL (≈ 2.73 µM)
Staphylococcus sp.; strain GC 4547
  MIC Coagulase Negative Staphylococcus (GC 4547): 4 µg/mL (≈ 2.73 µM)
Staphylococcus sp.; strain GC 4548
  MIC Coagulase Negative Staphylococcus (GC 4548): 1 µg/mL (≈ 0.682 µM)
Staphylococcus sp.; strain GC 4549
  MIC Coagulase Negative Staphylococcus (GC 4549): 0.5 µg/mL (≈ 0.341 µM)
Staphylococcus sp.; strain GC 4551
  MIC Coagulase Negative Staphylococcus (GC 4551): 4 µg/mL (≈ 2.73 µM)
Staphylococcus sp.; strain GC 6257
  MIC Coagulase Negative Staphylococcus (GC 6257): 1 µg/mL (≈ 0.682 µM)
